Measured values as given in US20090069623A1, “METHODS AND COMPOSITIONS FOR TREATMENT OR PREVENTION OF RADIATION-INDUCED FIBROSIS” (Virginia Commonwealth University Intellectual Property …, priority 2007, published 2009).

Experiments:
Type in all cases: cell-based, human
CTGF, fibronectin [1] = test: Western blot of irradiated HFL-1 cells treated with HMG-CoA inhibitors; conditions: 5 Gy, three days, FIG. 8C; for amount of CTGF detected in the cell lysate (CL): HMG-CoA inhibitor pretreatment 6 hours
Method: For statin treatment experiments, cells were grown overnight in 35 mm plates (6-well plates were also used in some studies) to form a 75-80% confluent monolayer. The cells were then washed with PBS, and the media was changed to SFM (800 μL).
(§1) Harvesting Culture Media and Cell Lystates. For analysis of extracellular CTGF, fibronectin, and α-tubulin, cell culture media was collected, centrifuged to remove cellular debris, aliquoted, and frozen at −70° C. until ready for use. For analysis of intracellular CTGF, fibronectin, and α-tubulin, cell lysates were harvested using 200 μL of HBSST lysis buffer (HBSS containing 1 mM MgSO4, 1 mM CaCl2, 4 mM NaHCO3, 0.5% Triton X-100, protease inhibitor cocktail). Cellular debris was removed by centrifugation.
Western blot analysis of HFL-1 whole cell proteins. […] Primary antibodies for CTGF and fibronectin were diluted at 1:600 and were incubated at 4° C. overnight with shaking. Primary antibodies for α-tubulin were diluted at 1:4,000 and were incubated at 4° C. overnight with shaking. Corresponding secondary antibodies were diluted at 1:6,000 and were incubated at room temperature for 1 hour with shaking. After washing the blot, the antibodies were detected by the enhanced chemiluminescence method (PerkinElmer Life Sciences Inc.).
Cells were harvested, and cell lysates were separated by SDS-PAGE. The separated proteins were then transferred to nitrocellulose, and Western immunoblotting was performed with antibodies specific for CTGF, fibronectin, and α-tubulin. […] As a control for protein loading, α-tubulin expression in HFL-1 cells was also determined.
Cells were harvested, and cell lysates were separated by SDS-PAGE. The separated proteins were then transferred to nitrocellulose, and Western immunoblotting was performed with antibodies specific for CTGF, fibronectin, and α-tubulin. FIG. 8C is a Western blot of HFL-1 cells exposed to radiation and treated with HMG-CoA inhibitors.

[2] = system: CTGF, fibronectin (FN), collagen type IV (Col IV) mRNA; test: RT-PCR of mRNA expression in HFL-1 cells treated with TGF-β1; conditions: 0 to 25 ng/ml TGF-β1, six hour treatment, FIG. 5A
Method: (§2) Cell Culture and Treatment. Normal human fetal lung fibroblasts (HFL-1) were purchased from the American Type Culture Collection (ATCC Number: CCL-153) and cultured in Ham's F12K medium (American Type Culture Collection) supplemented with 2 mM L-glutamine adjusted to contain 1.5 g/L sodium bicarbonate and 10% fetal bovine serum. Cells were maintained in humidified 5% CO2 at 37° C. Human dermal fibroblasts (HDF), derived from the dermis of normal human adult skin, were purchased from Invitrogen, Inc. and cultured in Medium-106 (Invitrogen, Inc., Catalogue No. M-106-500) containing LSGS Kit (Invitrogen, Inc., Catalogue No. S-003-K) prior to use. After reaching 75-80% confluence, the medium was changed to serum free medium (SFM) for irradiation with different dose 1Gy, 2.5Gy, 5Gy, 7.5Gy and 10 Gy by using ^137Se. Alternatively, cells were treated with 5 ng/ml TGF-β1 (Sigma-Aldrich, Inc., Catalogue No. T7039) to stimulate CTGF production. The cells were then kept for 3 days in humidified 5% CO2 at 37° C. and subjected to Western immunoblot.^1 ^1What are the culture conditions (e.g., media) for M12 cells used in FIG. 3? […]
Normal human fetal lung fibroblasts (HFL-1) were treated with varying concentrations of TGF-β1, ranging from 0 ng/ml to 25 ng/ml. […] FIG. 5A is an agarose gel of RT-PCR products detected in HFL-1 cells following a six (6) hour treatment with TGF-β1.

CTGF, fibronectin [3] = test: Western blot of HFL-1 cells treated with TGF-β1
Method: Cell Culture and Treatment. Normal human fetal lung fibroblasts (HFL-1) were purchased from the American Type Culture Collection (ATCC Number: CCL-153) and cultured in Ham's F12K medium (American Type Culture Collection) supplemented with 2 mM L-glutamine adjusted to contain 1.5 g/L sodium bicarbonate and 10% fetal bovine serum. Cells were maintained in humidified 5% CO2 at 37° C. Human dermal fibroblasts (HDF), derived from the dermis of normal human adult skin, were purchased from Invitrogen, Inc. and cultured in Medium-106 (Invitrogen, Inc., Catalogue No. M-106-500) containing LSGS Kit (Invitrogen, Inc., Catalogue No. S-003-K) prior to use. After reaching 75-80% confluence, the medium was changed to serum free medium (SFM) for irradiation with different dose 1Gy, 2.5Gy, 5Gy, 7.5Gy and 10 Gy by using ^137Se. Alternatively, cells were treated with 5 ng/ml TGF-β1 (Sigma-Aldrich, Inc., Catalogue No. T7039) to stimulate CTGF production. […] 3?
as §1
Western blot analysis of HFL-1 whole cell proteins. The primary antibodies that selectively recognized CTGF (sc-14939) and fibronectin (sc-9068) were purchased from Santa Cruz Biotechnology, Inc., and primary antibodies that selectively recognized α-tubulin (T 9026) were purchased from Sigma. […] After washing the blot, the antibodies were detected by the enhanced chemiluminescence method (PerkinElmer Life Sciences Inc.).
Protein expression in HFL-1 cells treated with TGF-β1 was also determined. […] As a control for protein loading, α-tubulin expression in HFL-1 cells was also determined.

[4] = system: CTGF, fibronectin (FN), collagen type IV (Col IV) mRNA; test: RT-PCR of mRNA expression in HDF cells treated with TGF-β1; conditions: 0 to 25 ng/ml TGF-β1, FIG. 9A
Method: as §2
Human dermal fibroblasts (HDF) were treated with varying concentrations of TGF-β1, ranging from 0 ng/ml to 25 ng/ml, […]. […] FIG. 9A is an agarose gel of RT-PCR products detected in HDF cells following a six (6) hour treatment with TGF-β1.

CTGF, fibronectin [5] = test: Western blot of HDF cells treated with TGF-β1; conditions: three days after TGF-β1, FIG. 9B
Method: Cell Culture and Treatment. Normal human fetal lung fibroblasts (HFL-1) were purchased from the American Type Culture Collection (ATCC Number: CCL-153) and cultured in Ham's F12K medium (American Type Culture Collection) supplemented with 2 mM L-glutamine adjusted to contain 1.5 g/L sodium bicarbonate and 10% fetal bovine serum. Cells were maintained in humidified 5% CO2 at 37° C. Human dermal fibroblasts (HDF), derived from the dermis of normal human adult skin, were purchased from Invitrogen, Inc. and cultured in Medium-106 (Invitrogen, Inc., Catalogue No. M-106-500) containing LSGS Kit (Invitrogen, Inc., Catalogue No. S-003-K) prior to use. After reaching 75-80% confluence, the medium was changed to serum free medium (SFM) for irradiation with different dose 1Gy, 2.5Gy, 5Gy, 7.5Gy and 10 Gy by using ^137Se. […]
Harvesting Culture Media and Cell Lystates. For analysis of extracellular CTGF, fibronectin, and α-tubulin, cell culture media was collected, centrifuged to remove cellular debris, aliquoted, and frozen at −70° C. until ready for use. […]
Western blot analysis of HFL-1 whole cell proteins. […] After washing the blot, the antibodies were detected by the enhanced chemiluminescence method (PerkinElmer Life Sciences Inc.).
Protein expression in HDF cells treated with TGF-β1 was also determined. […] As a control for protein loading, α-tubulin expression in HFL-1 cells was also determined.

[6] = three days after TGF-β1, FIG. 5B

Compound: CCOP(=O)(OCC)C(=Cc1cc(C(C)(C)C)c(O)c(C(C)(C)C)c1)P(=O)(OCC)OCC [SR12813]
- amount of CTGF detected in the cell lysate (CL) (CTGF, fibronectin [1]): decreased as the amount of HMG-CoA inhibitor increased
- inhibitory effects on radiation-induced CTGF relative to other HMG-CoA inhibitors (CTGF, fibronectin [1]; pretreatment 6 hours): reduced relative to the inhibitory effects of simvastatin, pravastatin, lovastatin, mevinolin, and mevastatin

Compound: CC[C@H](C)C(=O)O[C@H]1C[C@H](O)C=C2C=C[C@H](C)[C@H](CC[C@@H](O)C[C@@H](O)CC(=O)O)[C@H]21 [pravastatin, (βR,δR,1S,2S,6S,8S,8aR)-1,2,6,7,8,8a-hexahydro-β,δ,-6-trihydroxy-2-methyl-8-[(2S)-2-methyl-1-oxobutoxy]-1-naphthalene-heptanoic acid]
- amount of CTGF detected in the cell lysate (CL) (CTGF, fibronectin [1]): decreased as the amount of HMG-CoA inhibitor increased

Compound: TGF-β1: Cytokine used to stimulate CTGF production (Sigma-Aldrich, Inc., Catalogue No. T7039)
- expression of CTGF, FN, and Col IV mRNA [2]: increased as the concentration of TGF-β1 increased
- CTGF expression (CTGF, fibronectin [3]; 5 ng/ml TGF-β1 for 4 days, FIG. 1): increased
- amount of CTGF in culture medium (CM) and cell lysate (CL) (CTGF, fibronectin [3]; [6]): increased as the amount of TGF-β1 increased
- fibronectin protein expression (CTGF, fibronectin [3]; [6]): same increase in protein expression
- expression of CTGF, FN, and Col IV mRNA [4]: increased as the concentration of TGF-β1 increased
- amount of CTGF in culture medium (CM) and cell lysate (CL) (CTGF, fibronectin [5]): increased as the amount of TGF-β1 increased
- fibronectin protein expression (CTGF, fibronectin [5]): same increase in protein expression

Compound: (2S)-2-methyl-butanoic acid(1S,3R,7S,8S,8aR)-1,2,3,7,8,8a-hexahydro-3,7-dimethyl-8-[2-[(2R,4R)-tetrahydro-4-hydroxy-6-oxo-2H-pyran-2-yl]ethyl]-1-na-phthalenylester [mevinolin]
- amount of CTGF detected in the cell lysate (CL) (CTGF, fibronectin [1]): decreased as the amount of HMG-CoA inhibitor increased

Compound: CC[C@H](C)C(=O)O[C@H]1CCC=C2C=C[C@H](C)[C@H](CC[C@@H]3C[C@@H](O)CC(=O)O3)C21 (stereo partly drawn) [mevastatin, (2S)-2-methyl-butanoic acid(1S,7S,8S,8aR)-1,2,3,7,8,8a-hexahydro-7-methyl-8-[2-[(2R,4R)-tetrahydro-4-hydroxy-6-oxo-2H-pyran-2-yl]ethyl]-1-naphthale-nylester]
- amount of CTGF detected in the cell lysate (CL) (CTGF, fibronectin [1]): decreased as the amount of HMG-CoA inhibitor increased
